Laboratory results from patent US10500223B2, “Therapeutic agent for myotonic dystrophy” (Osaka University, priority 2015, dated 2019).
Where “and” joins values, the source holds several entries; their conditions need not be identical. Equal entries are not always repeated.

Legend:
C2C12-DMPK800R cells = assay: RNA foci formation in MyD model cells (FISH); assay type: cell-based, mouse; details: erythromycin 25 or 50 μM, 72 hours, vs medium without erythromycin
Method: MyD model cells were treated with erythromycin, and the number of RNA foci was measured by the FISH (fluorescence in situ hybridization) method.
The MyD cell model used was cells established by transfection of a DMPK gene containing 800 CTG repeats into C2C12 cells (C2C12-DMPK800R, Nucleic Acids Research, 2014, 42 (10), 6591-6602). The establishment of the C2C12-DMPK800 cells was performed in the following procedure. Both a plasmid (pLC16) with a DMPK gene sequence containing 800 CTG repeats in the 3′-untranslated region and a plasmid expressing PhiC31 integrase were transfected into the C2C12 mouse myoblast cell line using Nucleofector (trade name, Lonza), and stably expressing cells were selected using a selection medium with puromycin. Next, a plasmid expressing Cre recombinase was transfected into the stably expressing cells, and a clone in which the transcription of 800 CUG had been activated was selected using a selection medium with hygromycin. […]
The MyD model cells were cultured in DMEM medium supplemented with 10% FBS and penicillin/streptomycin under the conditions of 37° C. and 5% CO2. […] After mounting in Vectashield with DAPI (trade name, Vector Laboratories), the number of RNA foci in the nucleus was counted with a fluorescence microscope (Keyence PZ-9000).

[1] = test system: Atp2a1 gene exon 22 splicing; assay: Aberrant splicing of Atp2a1 exon 22 in MyD model cells (RT-PCR); assay type: cell-based, mouse; details: C2C12-DMPK800R cells, erythromycin 25 or 50 μM, 72 hours
Method: The MyD model cells were treated with erythromycin, and whether erythromycin would correct aberrant splicing in exon 22 of the Atp2a1 gene was examined. The same MyD model cells as in Example 1 (C2C12-DMP[…]) were used. The same erythromycin as in Example 1 was used. To the medium of the MyD model cells, erythromycin was added at 0, 25 or 50 μM, and after 72 hours, the total RNA was extracted using RNeasy Mini Plus Kit (trade name, Qiagen). As a control, normal C2C12 cells were cultured in a medium without erythromycin, and the total RNA was similarly extracted. For RT-PCR, SuperScript III First-Strand Synthesis System (Invitrogen) was used to prepare cDNA, and after treatment with RNase H, the segment of interest was amplified using the Atp2a1 exon 22 RT primers shown below. The RT-PCR product was electrophoresed on a 2% agarose gel and then stained using GelRed. The normal PCR product and the aberrant PCR product were separately quantified with an image analyzer (Typhoon 9410, GE). Atp2a1 exon 22 RT primers

[2] = test system: skeletal muscle chloride channel (Clcn1) gene splicing; assay: Aberrant splicing of Clcn1 gene in quadriceps femoris muscle of MyD model mice, intraperitoneal erythromycin; assay type: in vivo, mouse; details: HSA^LR mice, 150 mg/kg intraperitoneal once daily for 8 days, vs physiological saline MyD group
Text: Erythromycin was intraperitoneally administered to MyD model mice, and its effects on muscle contraction in the quadriceps femoris muscle and on aberrant splicing of the skeletal muscle chloride channel (Clcn1) gene in the quadriceps femoris muscle were examined. The MyD model mice used were HSA^LR mice, which were kindly provided by Dr. Charles Thornton (University of Rochester) and bred in the laboratory animal facility of Osaka University. The HSA^LR mice are transgenic animals prepared by genomic integration of a hACTA gene (human gene constitutively expressed in myocytes) containing 3′-terminal CTG repeats expanded to 220, and manifest the symptoms of MyD upon the expression of mRNA with expanded CUG repeats in the myocytes (Science, 2000, 289 (5485), 1769-73). As a control, wild-type mice (FVB/NJcl mice, purchased from CLEA Japan) were used. Male and female mice aged 8 weeks were used for the experiment. The erythromycin used was “Erythrocin (registered trademark) for intravenous injection 500 mg (erythromycin lactobionate for injection)” (Abbott). This product was dissolved at 50 mg/mL in physiological saline before use. […] The normal PCR product and the aberrant PCR product were separately quantified with an image analyzer (Typhoon 9410, GE), and the percentage of the normal product in the total RT-PCR product was calculated. […]

HSA^LR mice [3] = assay: Muscle contraction (myotonia) by needle electromyography in MyD model mice, intraperitoneal erythromycin; assay type: in vivo, mouse; details: 150 mg/kg intraperitoneal once daily for 8 days, quadriceps femoris muscle, 24 h after final administration, n=3
Method: The animals were divided into three groups: an erythromycin administration MyD group, a physiological saline administration MyD group and a control (wild-type mice) group (n=3 (1 male, 2 females) per group). The dose of erythromycin was 150 mg/kg, and this dose was repeatedly administered once daily for 8 days. The physiological saline administration MyD group was repeatedly given physiological saline once daily for 8 days. Nothing was administered to the control (wild-type mice) group.
Twenty-four hours after the final administration, needle electromyography was performed in the quadriceps femoris muscle in the mice under anesthesia to record myotonic discharge. […]

[4] = test system: skeletal muscle chloride channel (Clcn1) gene splicing; assay: Aberrant splicing of Clcn1 gene in quadriceps femoris muscle of MyD model mice, high-dose oral erythromycin; assay type: in vivo, mouse; details: HSA^LR mice, 300, 600, 900 mg/kg gavage once daily for 5 days
Method: High-dose erythromycin was orally administered to MyD model mice, and its effect on aberrant splicing of the skeletal muscle chloride channel (Clcn1) gene in the quadriceps femoris muscle was examined. The same MyD model mice (HSA^LR mice) and wild-type mice as in Example 3 were used. The erythromycin used was “Erythrocin (registered trademark) dry syrup […]% (erythromycin ethylsuccinate dry syrup)” (Abbott). This product was dissolved at 100 mg/mL in purified water before use. The animals were divided into five groups: an erythromycin 300 mg/kg administration MyD group, an erythromycin 600 mg/kg administration MyD group, an erythromycin 900 mg/kg administration MyD group, a physiological saline administration MyD group and a control (wild-type mice) group (n=3 per group). The administration was gavage administration and performed once daily for five consecutive days. On the day of the final administration, the quadriceps femoris muscle was dissected from each mouse. In the same manner as in Example 3, RT-PCR was performed, the normally spliced product and the aberrantly spliced product were separately quantified, and the percentage of the normal product in the total RT-PCR product was calculated. Statistical analysis was performed using t-test.

[5] = test system: skeletal muscle chloride channel (Clcn1) gene splicing; assay: Aberrant splicing of Clcn1 gene in quadriceps femoris muscle of MyD model mice, usual-dose oral erythromycin; assay type: in vivo, mouse; details: HSA^LR mice, 50 mg/kg gavage once daily for 21 days, vs physiological saline MyD group
Method: Usual-dose erythromycin was orally administered to MyD model mice, and its effects on muscle contraction in the quadriceps femoris muscle and on aberrant splicing of the skeletal muscle chloride channel (Clcn1) gene in the quadriceps femoris muscle were examined. The same MyD model mice (HSA^LR mice) and wild-type mice as in Example 3 were used. As with the case in Example 4, “Erythrocin (registered trademark) dry syrup […]% (erythromycin ethylsuccinate dry syrup)” (Abbott) was dissolved at 100 mg/mL in purified water before use. The animals were divided into three groups: an erythromycin 50 mg/kg administration MyD group, a physiological saline administration MyD group and a control (wild-type mice) group (n=3 per group). The administration was gavage administration and performed once daily for 21 consecutive days. On the day of the final administration, the quadriceps femoris muscle was dissected from each mouse. In the same manner as in Example 3, RT-PCR was performed, and the normally spliced product and the aberrantly spliced product were separately quantified. Statistical analysis was performed using t-test.

HSA^LR mice [6] = assay: Muscle contraction (myotonia) by needle electromyography in MyD model mice, usual-dose oral erythromycin; assay type: in vivo, mouse; details: 50 mg/kg gavage once daily for 21 days, quadriceps femoris muscle, n=3
Method: Usual-dose erythromycin was orally administered to MyD model mice, and its effects on muscle contraction in the quadriceps femoris muscle and on aberrant splicing of the skeletal muscle chloride channel (Clcn1) gene in the quadriceps femoris muscle were examined. The same MyD model mice (HSA^LR mice) and wild-type mice as in Example 3 were used. As with the case in Example 4, “Erythrocin (registered trademark) dry syrup […]% (erythromycin ethylsuccinate dry syrup)” (Abbott) was dissolved at 100 mg/mL in purified water before use. The animals were divided into three groups: an erythromycin 50 mg/kg administration MyD group, a physiological saline administration MyD group and a control (wild-type mice) group (n=3 per group). The administration was gavage administration and performed once daily for 21 consecutive days. On the day of the final administration, needle electromyography was performed in the quadriceps femoris muscle in the mice under anesthesia to record myotonic discharge.

Which results are given for `CC[C@H]1OC(=O)[C@H](C)[C@@H](O[C@H]2C[C@@](C)(OC)[C@@H](O)[C@H](C)O2)[C@H](C)[C@@H](O[C@@H]2O[C@H](C)C[C@H](N(C)C)[C@H]2O)[C@](C)(O)C[C@@H](C)C(=O)[C@H](C)[C@@H](O)[C@]1(C)O` [erythromycin, (2R,3S,4S,5R,6R,8R,10R,11R,12S,13R)-5-(3,4,6-trideoxy-3-dimethylamino-β-D-xylo-hexopyranosyloxy)-3-(2,6-dideoxy-3-C-methyl-3-O-methyl-α-L-ribo-hexopyranosyloxy)-6,11,12-trihydroxy-2,4,6,8,10,12-hexamethyl-9-oxopentadecan-13-olide]?
percentage of RNA foci positive cells (C2C12-DMPK800R cells): significantly decreased the percentage of RNA foci positive cells in a dose dependent manner; percentage of the normal product in the total RT-PCR product (Atp2a1 exon 22) [1]: significantly increased the percentage of the normal product to a level observed in the normal C2C12 cells; percentage of the normal product in the total RT-PCR product (Clcn1 exon 7a) [2]: significantly higher percentage of the normal RT-PCR product; severity of muscle contraction (frequency of myotonic discharge), per mouse (HSA^LR mice [3]): 1 (myotonic discharge was observed in less than 50% of the needle insertions.) and no muscle contraction; correction of aberrant splicing of the Clcn1 gene (percentage of normal product) [4]: significantly corrected the aberrant splicing of the Clcn1 gene in a dose dependent manner; percentage of the normal RT-PCR product (Clcn1) [5]: significantly higher percentage of the normal RT-PCR product; severity of muscle contraction (frequency of myotonic discharge), per mouse (HSA^LR mice [6]): 2 (myotonic discharge was observed in 50% or more and less than 90% of the needle insertions.) and 1 (myotonic discharge was observed in less than 50% of the needle insertions.)
